Experimental data: article PMC5325331, “A steroid like phytochemical Antcin M is an anti-aging reagent that eliminates hyperglycemia-accelerated premature senescence in dermal fibroblasts by direct activation of Nrf2 and SIRT-1” (Oncotarget, 2016)
Where two headings read alike, the source gives them in different places.

Columns and labels:
HNDFs [1] = experiment: Cytotoxicity of antcins against HNDFs (MTT assay); assay type: cell-based, human; details: for IC50: MTT assay, read-out: IC50 (50% inhibitory concentration) against HNDFs; for cytotoxicity to HNDFs up to the high treatment concentration: up to 20 μM, 72 h, MTT
Experimental: Figure 2 Effects of antcins on HG-induced senescence in HNDFs A. Type of antcins subjected to screen for potential anti-aging agents for skin aging. Names and chemical structures of the antcins are shown in the left and centrer column, respectively. The cytotoxic effects of antcins against HNDFs. Briefly, HNDFs were incubated with increasing concentrations (1, 5, 10 and 20 μM) of antcins including antcin A, antcin B, antcin C, antcin H, anticn K and antcin M for 72 h and the cell viability was determined by MTT assay. The 50% inhibitory concentrations (IC50) of each compound against HNDFs are shown in right column. B. Cells were incubated with antcin A (10 μM), antcin H (10 μM) and antcin M (10 μM) in the presence of HG (30 mM) for 72 h. Cellular senescence was determined by SA-β-gal activity. […] C. HNDFs were incubated with antcin A (10 μM), antcin H (10 μM) and antcin M (10 μM) in the presence of HG (30 mM) for 72 h. Senescence-associated marker proteins such as p16^INK4A, p21^CIP1 and SMP30 were determined by western blot analysis. D. To determine the effect of antcins on cell proliferation efficacy, HNDFs 5 × 10^4 cells/well in 6-well plates were incubated with antcins in the presence of HG (30 mM) for 72 h. Number of viable cells were quantified by the tryphan blue exclusion method. Results are expressed as mean ± S.E.M of three indipendent expriments. Statistical significance was et at ^ФP < 0.05 compared to NG vs HG and *P < 0.05 compared to HG vs. samples.
(§1) Human normal dermal fibroblasts (HNDFs, CCD966SK) and human umbilical vein endothelial cells (HUVECs) were obtained from the Bioresource Collection and Research Center (BCRC), Hsinchu, Taiwan. HNDFs were grown in MEM containing 10% FBS, 2 mM L-glutamine, 100 U/mL penicillin and streptomycin at 37°C in a fully humidified atmosphere of 5% CO2. Likewise, HUVECs were grown in M-199 medium supplemented with ECGS, heparin, 10% FBS and 100 U/mL penicillin and streptomycin at 37°C in a fully humidified atmosphere of 5% CO2. High-glucose treatment was performed by treating cells with 15 or 30 mM D-glucose (HG) for 24-72 h.
Cell viability was assessed by MTT colorimetric assay. Briefly, HNDFs (2 × 10^4 cells/well) or HUVECs (5 × 10^4 cells/well) were seeded in a 24-well culture plate. After treatment with HG (15 and 30 mM) in the presence or absence of samples for 24-72 h, culture media was withdrawn and incubated with MTT (1 mg/mL) in fresh medium for 2 h. The MTT formazan crystals were dissolved in 400 μL of DMSO and the samples were measured at 570 nm […] using an ELISA microplate reader (Bio-Tek Instruments, Winooski, VT). The percentage of cell viability (%) was calculated as (A570 of treated cells/A570 of untreated cells) × 100.

HNDFs [2] = experiment: SA-β-gal senescence assay in HG-induced HNDFs; assay type: cell-based, human; details: for SA-β-gal positive cells: 10 μM with HG (30 mM) for 72 h, HG alone 9.59-fold (Figure 2B); for HG-induced SA-β-gal activity in kinase inhibitor-treated cells: inhibitor 30 μM with HG (30 mM) for 72 h (Figure 4H)
Experimental: as §1
Senescence-associated β-galactosidase (SA-β-gal) activity was determined in formaldehyde-fixed histochemical staining kit according to the manufacturer's instructions (Cell Signaling Technology, Danvers, […]). Briefly, cells were grown in 6-well plates at a density of 5 × 10^4 cells/well, and incubated with HG or test samples for 48 h (HUVECs) or 72 h (HNDFs). After incubation, cells were stained with SA-β-gal staining solution at pH 6.0 overnight and then the development of blue staining was observed and photographed under a bright-field microscope (Motic Electric Group, Xiamen, P.R. China).

[3] = test system: p16INK4A, p21CIP1 and SMP30; experiment: Western blot of senescence-associated marker proteins in HG-induced HNDFs; assay type: cell-based, human; details: 10 μM with HG (30 mM) for 72 h, immunoblotting
Experimental: Cells were lysed by either RIPA lysis buffer or nuclear and cytoplasmic extraction reagents (Thermo Fisher Scientific). Protein concentrations were determined by Bio-Rad protein assay reagent (Bio-Rad Laboratories, Hercules, CA). Equal amounts of protein samples (60 μg) were separated by 7-12% SDS-PAGE and the separated proteins were transferred onto polyvinylidene […] (PVDC) membrane overnight. The transferred protein membranes were blocked with 5% non-fat dried milk for 30 min, followed by incubation with specific primary antibodies overnight, and either horseradish peroxidase-conjugated goat anti-rabbit or anti-mouse antibodies for 2 h. The blots were detected using VL Chemi-Smart 3000 (Viogene Biotek, Sunnyvale, CA) with the enhanced chemiluminescence (ECL) western blotting reagent (Millipore, Billerica, MA).

HNDFs [4] = experiment: Cell proliferation, trypan blue exclusion assay in HG-induced HNDFs; assay type: cell-based, human; details: with HG (30 mM) for 72 h (Figure 2D)
Experimental: Cell proliferation was evaluated using trypan blue exclusion assay as described previously with minor modification. Cells were plated into 6-well plates at a density of 5 × 10^4 cells/well. After incubation overnight, cells were treated with test samples in the presence or absence of HG for 24-72 h. Cells exposed to 0.2% Trypan blue were then counted in a hemocytometer, and cells stained with Trypan blue were excluded. Percentage of viable cells was calculated based on the ratio of viable cells to total cell population in each well. The proliferation rate was calculated based on the number of viable cells in HG or sample-treated groups versus the NG-treated group.

[5] = test system: Nrf2 transcriptional activity (ARE promoter); experiment: ARE luciferase reporter assay in HNDFs; assay type: cell-based, human; details: for ANM-induced ARE luciferase activity after inhibitor pretreatment: inhibitor pre-incubation 2 h, then ANM 6 h in the presence of HG; for ARE luciferase activity: 6 h
Experimental: ARE promoter activity was measured using a dual-luciferase reporter assay system (Promega, Madison, WI). […] Cells were then transfected with ARE plasmid (Qiagen, Hilden, Germany) using Lipofectamine 2000 (Invitrogen) and incubated for 36 h. […] The cell lysate was prepared and incubated with luciferase agents and the relative luminescence intensity was quantified using a spectrophotometer (Hidex Oy, Turku, Finland).

[6] = test system: C. elegans wild type Bristol N2; experiment: Life span assay in C. elegans; assay type: in vivo, Caenorhabditis elegans; details: ANM 10 μM or RES 438 μM alone, compared to the control
Experimental: The wild type Bristol N2 strain was used in this study. C. elegans and Escherichia coli OP50 strain were obtained from the Caenorhabditis Genetic Center, University of Minnesota (Minneapolis-St. Paul, MN). Worms were maintained at 20°C on nematode growth medium (NGM). Hatched worms (L1-stage larvae) were transferred to fresh agar plates and cultured with E. coli OP50 as a food source until they reached the L4 larvae stage. Synchronization of worm cultures was achieved by hypochlorite treatment of gravid hermaphrodites. […] Control worms were treated with 0.1% DMSO. All worms were kept 20°C to develop adulthood. Surviving and dead animals were counted daily (starting from the first day of adulthood) until all worms had died. […] Worms suffering from internal hatch (a defect in egg-laying) and those that crawled off the NGM plate were not included in the life-span assay. During the reproductive period, adult worms were transferred to fresh NGM plates every and then every other day thereafter. Life span assay result was obtained from three independent assays.

HUVECs = experiment: Cell viability of HUVECs (MTT assay); assay type: cell-based, human; details: ANM 10 μM or RES 5 μM for 48 h
Experimental: Human normal dermal fibroblasts ([…]) and human umbilical vein endothelial cells (HUVECs) were obtained from the Bioresource Collection and Research Center (BCRC), Hsinchu, Taiwan. […] Likewise, HUVECs were grown in M-199 medium supplemented with ECGS, heparin, 10% FBS and 100 U/mL penicillin and streptomycin at 37°C in a fully humidified atmosphere of 5% CO2. High-glucose treatment was performed by treating cells with 15 or 30 mM D-glucose (HG) for 24-72 h. […] Cell viability was assessed by MTT colorimetric assay. […] After treatment with HG (15 and 30 mM) in the presence or absence of samples for 24-72 h, culture media was withdrawn and incubated with MTT (1 mg/mL) in fresh medium for 2 h. The MTT formazan crystals were dissolved in 400 μL of DMSO and the samples were measured at 570 nm […] using an ELISA microplate reader (Bio-Tek Instruments, Winooski, VT). The percentage of cell viability (%) was calculated as (A570 of treated cells/A570 of untreated cells) × 100.

HNDFs [7] = experiment: Cell-cycle analysis by flow cytometry (PI) in HG-induced HNDFs; assay type: cell-based, human; details: NAC 100 μM with HG (30 mM) for 72 h
Experimental: HNDFs at a density of 5 × 10^5 cells in 10 cm dishes were treated with ANM or NAC in the presence or absence of HG for 72 h. Cells were collected, washed with PBS and fixed in 95% cold-ethanol, and kept at −20°C overnight. The cell pellet was then washed again with PBS and centrifuged at 1500 × g for 5 min. The pellet was re-suspended in 1 mL PI/Triton X-100 (20 μg/mL PI, 0.1% Triton X-100 and 0.2 mg/mL RNAse) and incubated on ice for 30 min. The total cellular DNA content was analyzed with a flow cytometer (Beckman Coulter FC500). Data were acquired and analyzed using CXP software (Beckman Coulter).

[8] = Cell-free DPPH free-radical scavenging assay
Experimental: Therefore, next to determine whether ANM acts directly as a free-radical scavenger, we performed a cell-free DPPH free-radical scavenging assay.
Figure 5 Antcin M activates Nrf2-dependent anti-oxidant defense in HNDFs A. To determine the free-radical scavenging effect of ANM, cell-free DPPH assay was performed. […] Results expressed as mean ± S.E.M of three indipendent expriments.

HNDFs [9] = experiment: Flow cytometric detection of intracellular ROS (DCFH2-DA) in HNDFs; assay type: cell-based, human
Experimental: Intracellular ROS accumulation was determined using the dye DCFH2-DA following a procedure described earlier. Briefly, HNDFs (1 × 10^5 cells/well) were seeded in 6-well plates and incubated with HG in the presence or absence of test samples for 24 h. At the end of the incubation, the culture supernatant was removed and cells were washed twice with PBS. DCFH2-DA (10 μM) was mixed with 500 μL MEM and added to the culture plate. After incubation for 30 minutes, cells were collected by trypsin and the fluorescence shift was quantified using a flow cytometer (Beckman Coulter). Data were acquired and analyzed using CXP software (Beckman Coulter).

[10] = Homo sapiens, 72 h, 1, 5, 10 and 20 μM for 72 h

## C=C(CCC(C)C1CCC2C3=C(C(=O)C(O)C21C)C1(C)CCC(O)C(C)C1CC3=O)C(C)C(=O)O (centres unmarked) [ANH, antcin H]
HNDFs [1]; 1, 5, 10 and 20 μM for 72 h
  IC50: > 50 µM
HNDFs [1]
  cytotoxicity to HNDFs up to the high treatment concentration: did not show significant cytotoxicity
HNDFs [2]
  SA-β-gal positive cells: 8.13 fold
[3]
  HG-induced upregulation of p16INK4A and p21CIP1 proteins: moderate inhibition
HNDFs [4]
  cell proliferation compared to the HG treatment group: partially increased cell proliferation

## Oc1c2ccccc2c2c3c(cccc13)N=N2 [SP600125, reference compound]
HNDFs [2]
  HG-induced SA-β-gal activity in kinase inhibitor-treated cells: barely observed
[5]
  ANM-induced ARE luciferase activity after inhibitor pretreatment: partially or barely inhibited

## C[S+]([O-])c1ccc(-c2nc(-c3ccncc3)c(-c3ccc(F)cc3)[nH]2)cc1 (centres unmarked) [SB203580, reference compound]
HNDFs [2]
  HG-induced SA-β-gal activity in kinase inhibitor-treated cells: barely observed
[5]
  ANM-induced ARE luciferase activity after inhibitor pretreatment: partially or barely inhibited

## C=C(CCC(C)C1CCC2C3=C(C(=O)CC21C)C1(C)CCC(=O)C(C)C1CC3O)C(C)C(=O)O (centres unmarked) [ANC, antcin C]
HNDFs [1]; [10]
  IC50: > 50 µM
HNDFs [1]
  cytotoxicity to HNDFs up to the high treatment concentration: did not show significant cytotoxicity

## Oc1ccc(/C=C/c2cc(O)cc(O)c2)cc1 [RES, resveratrol, reference compound]
[6]
  life span of C. elegans under normal condition: highly comparable
HUVECs
  cell viability of HUVECs, treatment alone: did not affect cell viability

## COc1cccc(-c2cc(=O)c3ccccc3o2)c1N [PD98059, reference compound]
HNDFs [2]
  HG-induced SA-β-gal activity in kinase inhibitor-treated cells: did not affect
[5]
  ANM-induced ARE luciferase activity after inhibitor pretreatment: effectively suppressed

## CC(=O)N[C@@H](CS)C(=O)O [NAC, N-acetylcysteine, reference compound]
HNDFs [7]
  HG-induced cell-cycle arrest: partially blocked
[5]; ANM 10 μM or NAC 100 μM alone, control 1-fold
  ARE luciferase activity: 6.3 fold
[5]; co-treated with HG (30 mM), ANM 10 μM or NAC 100 μM, HG alone 2.5-fold
  ARE luciferase activity: 8.2 fold
[8]
  free-radical scavenging in the cell-free system: potent free-radical scavenging effect
HNDFs [9]; ANM 10 μM or NAC 100 μM with HG (30 mM) for 24 h, HG alone 426.2%
  HG-induced ROS generation: 176.58%
HNDFs [9]; ANM 10 μM or NAC 100 μM without HG, 24 h
  ROS generation, treatment alone: did not significantly increase ROS generation

## C=C(CC[C@@H](C)[C@H]1CC[C@H]2C3=C(C(=O)C[C@]12C)[C@@]1(C)CCC(=O)[C@@H](C)[C@@H]1CC3)C(C)C(=O)O (some centres unmarked) [ANA, antcin A]
HNDFs [1]; [10]
  IC50: > 50 µM
HNDFs [2]
  SA-β-gal positive cells: 7.46 fold
[3]
  HG-induced upregulation of p16INK4A and p21CIP1 proteins: moderate inhibition
HNDFs [4]
  cell proliferation compared to the HG treatment group: partially increased cell proliferation

## C=C(CC[C@@H](C)[C@H]1CC[C@H]2C3=C(C(=O)C[C@]12C)[C@@]1(C)CCC(=O)[C@@H](C)[C@@H]1CC3=O)[C@H](C)C(=O)O [ANB, antcin B]
HNDFs [1]; [10]
  IC50: 7.11 µM

## C=C(CC[C@@H](C)[C@H]1CC[C@H]2C3=C(C(=O)C[C@]12C)[C@@]1(C)CC[C@@H](O)[C@](C)(O)[C@@H]1C[C@@H]3O)C(C)C(=O)O (some centres unmarked) [ANK, antcin K]
HNDFs [1]; [10]
  IC50: 2.89 µM

## O=c1cc(N2CCOCC2)oc2c(-c3ccccc3)cccc12 [LY294002, reference compound]
HNDFs [2]
  HG-induced SA-β-gal activity in kinase inhibitor-treated cells: reduced
[5]
  ANM-induced ARE luciferase activity after inhibitor pretreatment: effectively suppressed
